# Measurements: patent US11957759B1, “Rapidly accelerated fibrosarcoma (RAF) degrading compounds and associated methods of use” (Arvinas Operations, Inc., priority 2022, dated 2024)
# How the values were obtained:
# B-RAF G466V = biological target: T1, B-RAF G466V (Homo sapiens, UniProt P15056, G466V); experiment: Target protein degradation, assay D: T-Rex 293 cells, HA-BRAF_G466V, 384 well format; format: cell-based; settings: T-Rex 293 HA-BRAF_G466V cells, 24 hours, Examples 83-269; for DC50: Assay D; for Dmax: T-REx-293, Assay D
# T1 construct: expressed in transfected cells; host or cells: T-Rex 293 cells (Invitrogen #R71007)
# T1 sequence (P15056 whole entry G466V): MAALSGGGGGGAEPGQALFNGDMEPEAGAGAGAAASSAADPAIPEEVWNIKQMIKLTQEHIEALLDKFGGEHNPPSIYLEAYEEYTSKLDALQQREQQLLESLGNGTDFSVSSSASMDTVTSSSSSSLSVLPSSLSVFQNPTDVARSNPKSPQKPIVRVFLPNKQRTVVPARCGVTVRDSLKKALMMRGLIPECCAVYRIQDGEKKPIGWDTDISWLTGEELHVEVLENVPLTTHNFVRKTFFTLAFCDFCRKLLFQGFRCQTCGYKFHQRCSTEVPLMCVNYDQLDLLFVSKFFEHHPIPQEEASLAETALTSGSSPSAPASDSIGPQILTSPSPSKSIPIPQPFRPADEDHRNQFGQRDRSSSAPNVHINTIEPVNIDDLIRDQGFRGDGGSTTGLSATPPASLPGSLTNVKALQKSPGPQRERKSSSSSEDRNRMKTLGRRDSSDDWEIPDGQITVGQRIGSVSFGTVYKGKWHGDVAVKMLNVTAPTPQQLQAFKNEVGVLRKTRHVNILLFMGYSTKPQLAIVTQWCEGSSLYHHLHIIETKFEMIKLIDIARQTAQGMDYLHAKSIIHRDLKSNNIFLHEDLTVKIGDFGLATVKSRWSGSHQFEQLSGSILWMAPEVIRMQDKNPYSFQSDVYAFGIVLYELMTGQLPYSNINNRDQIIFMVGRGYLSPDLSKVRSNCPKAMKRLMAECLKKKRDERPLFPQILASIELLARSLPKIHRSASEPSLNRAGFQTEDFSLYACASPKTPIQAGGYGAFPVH
# Procedure, shortened: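 Degradation measured by high-content imaging of anti-HA immunofluorescence in fixed T-Rex 293 cells carrying inducible HA-BRAF G466V (1 ng/mL doxycycline), after 24 h PROTAC exposure at 37 °C over 300 nM–5 pM (1:3, 11 points, 0.5% DMSO). Outputs DC50 and Dmax as % of control; nuclei counts against DMSO wells gauge toxicity.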
# B-RAF V600E = biological target: T2, B-RAF V600E (Homo sapiens, UniProt P15056, V600E); experiment: Target protein degradation, assay C: T-Rex 293 cells, HA-BRAF_V600E, 384 well format; format: cell-based; settings: T-Rex 293 HA-BRAF_V600E cells, 24 hours, Examples 83-269; for DC50: Assay C; for Dmax: T-REx-293, Assay C
# T2 construct: expressed in transfected cells; host or cells: T-Rex 293 cells (Invitrogen #R71007)
# T2 sequence (P15056 whole entry V600E): as the sequence (P15056 whole entry G466V) above, with V466G, V600E counted along it
# Procedure, shortened: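 After 24 h exposure to an 11-point 1:3 series (300 nM–5 pM, 0.5% DMSO), fixed T-Rex 293 cells carrying HA-BRAF V600E (induced with 1 ng/mL doxycycline) were stained anti-HA and imaged. DC50 and Dmax were derived from BRAF intensity relative to control, and cytotoxicity from nuclear counts.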
compound,measurement,setting,value
"Cc1c(N2CCC(CN3CCN(c4ccc(-n5cnc6ccc(Oc7c(F)ccc(NS(=O)(=O)N8CC[C@@H](F)C8)c7C#N)cc6c5=O)cc4)CC3)CC2)ccc2c1CN(C1CCC(=O)NC1=O)C2=O (stereo partly drawn) [Example 104, (3R)-N-{2-cyano-3-[(3-{4-[4-({1-[2-(2,6-dioxopiperidin-3-yl)-4-methyl-1-oxo-2,3-dihydro-1H-isoindol-5-yl]piperidin-4-yl}methyl)piperazin-1-yl]phenyl}-4-oxo-3,4-dihydroquinazolin-6-yl)oxy]-4-fluorophenyl}-3-fluoropyrrolidine-1-sulfonamide]",DC50,B-RAF G466V,0.001 to 0.01 µM
same,Dmax,B-RAF G466V,35 to 70%
same,DC50,B-RAF V600E,0.005 to 0.05 µM
same,Dmax,B-RAF V600E,35 to 70%
"N#Cc1c(NS(=O)(=O)N2CC[C@@H](F)C2)ccc(F)c1Oc1ccc2ncn(-c3ccc(N4CCN(CCCOc5ccc6c(c5)C(=O)N(C5CCC(=O)NC5=O)C6=O)CC4)nc3)c(=O)c2c1 (stereo partly drawn) [Example 164, (3R)-N-{2-cyano-3-[(3-{6-[4-(3-{[2-(2,6-dioxopiperidin-3-yl)-1,3-dioxo-2,3-dihydro-1H-isoindol-5-yl]oxy}propyl)piperazin--1-yl]pyridin-3-yl}-4-oxo-3,4-dihydroquinazolin-6-yl)oxy]-4-fluorophenyl}-3-fluoropyrrolidine-1-sulfonamide]",DC50,B-RAF G466V,≤ 0.001 µM
same,Dmax,B-RAF G466V,≤ 35%
same,DC50,B-RAF V600E,0.05 to 0.5 µM
same,Dmax,B-RAF V600E,35 to 70%
"N#Cc1c(NS(=O)(=O)N2CC[C@@H](F)C2)ccc(F)c1Oc1ccc2ncn(-c3ccc(N4CCN(CC5CCN(c6ccc(C7CCC(=O)NC7=O)cc6F)CC5)CC4)cc3)c(=O)c2c1 (single isomer, unassigned) [Example 112, (3R)-N-(2-cyano-3-{[3-(4-{4-[(1-{4-[(3R*)-2,6-dioxopiperidin-3-yl]-2-fluorophenyl}piperidin-4-yl)methyl]piperazin-1-yl}phenyl)-4-oxo-3,4-dihydroquinazolin-6-yl]oxy}-4-fluorophenyl)-3-fluoropyrrolidine-1-sulfonamide]",DC50,B-RAF G466V,0.001 to 0.01 µM
same,Dmax,B-RAF G466V,35 to 70%
same,DC50,B-RAF V600E,0.005 to 0.05 µM
same,Dmax,B-RAF V600E,35 to 70%
"N#Cc1c(NS(=O)(=O)N2CC[C@@H](F)C2)ccc(F)c1Oc1ccc2ncn(-c3ccc(N4CCN(CC5CN(c6ccc7c(c6)CN([C@@H]6CCC(=O)NC6=O)C7=O)C5)CC4)cc3)c(=O)c2c1 [Example 107, (3R)-N-(2-cyano-3-{[3-(4-{4-[(1-{2-[(3R)-2,6-dioxopiperidin-3-yl]-1-oxo-2,3-dihydro-1H-isoindol-5-yl}azetidin-3-yl)methyl]piperazin-1-yl}phenyl)-4-oxo-3,4-dihydroquinazolin-6-yl]oxy}-4-fluorophenyl)-3-fluoropyrrolidine-1-sulfonamide]",DC50,B-RAF G466V,0.001 to 0.01 µM
same,Dmax,B-RAF G466V,35 to 70%
same,DC50,B-RAF V600E,0.005 to 0.05 µM
same,Dmax,B-RAF V600E,35 to 70%
"N#Cc1c(NS(=O)(=O)N2CC[C@@H](F)C2)ccc(F)c1Oc1ccc2ncn(-c3ccc(N4CCC5(CC4)CN(CC4CCN(c6ccc7c(c6)CN([C@H]6CCC(=O)NC6=O)C7=O)CC4)C5)cc3)c(=O)c2c1 [Example 202, (3R)-N-(2-cyano-3-{[3-(4-{2-[(1-{2-[(3S)-2,6-dioxopiperidin-3-yl]-1-oxo-2,3-dihydro-1H-isoindol-5-yl}piperidin-4-yl)methyl]-2,7-diazaspiro[3.5]nonan-7-yl}phenyl)-4-oxo-3,4-dihydroquinazolin-6-yl]oxy}-4-fluorophenyl)-3-fluoropyrrolidine-1-sulfonamide]",DC50,B-RAF G466V,0.001 to 0.01 µM
same,Dmax,B-RAF G466V,35 to 70%
same,DC50,B-RAF V600E,0.05 to 0.5 µM
same,Dmax,B-RAF V600E,35 to 70%
"Cc1cc(N2CC(CN3CCN(c4ccc(-n5cnc6ccc(Oc7c(F)ccc(NS(=O)(=O)N8CC[C@@H](F)C8)c7C#N)cc6c5=O)cc4)CC3)C2)cc2c1C(=O)N([C@@H]1CCC(=O)NC1=O)C2 [Example 235, (3R)-N-(2-cyano-3-{[3-(4-{4-[(1-{2-[(3R)-2,6-dioxopiperidin-3-yl]-7-methyl-1-oxo-2,3-dihydro-1H-isoindol-5-yl}azetidin-3-yl)methyl]piperazin-1-yl}phenyl)-4-oxo-3,4-dihydroquinazolin-6-yl]oxy}-4-fluorophenyl)-3-fluoropyrrolidine-1-sulfonamide]",DC50,B-RAF G466V,0.001 to 0.01 µM
same,Dmax,B-RAF G466V,35 to 70%
same,DC50,B-RAF V600E,0.05 to 0.5 µM
same,Dmax,B-RAF V600E,35 to 70%
"C[C@H]1CN(CC2CCN(c3ccc4c(c3F)CN([C@H]3CCC(=O)NC3=O)C4=O)CC2)CCN1c1ccc(-n2cnc3ccc(Oc4c(F)ccc(NS(=O)(=O)N5CC[C@@H](F)C5)c4C#N)cc3c2=O)nc1 [Example 213, (3R)-N-{2-cyano-3-[(3-{5-[(2S)-4-[(1-{2-[(3S)-2,6-dioxopiperidin-3-yl]-4-fluoro-1-oxo-2,3-dihydro-1H-isoindol-5-yl}piperidin-4-yl)methyl]-2-methylpiperazin-1-yl]pyridin-2-yl}-4-oxo-3,4-dihydroquinazolin-6-yl)oxy]-4-fluorophenyl}-3-fluoropyrrolidine-1-sulfonamide]",DC50,B-RAF G466V,0.001 to 0.01 µM
same,Dmax,B-RAF G466V,≤ 35%
same,DC50,B-RAF V600E,0.05 to 0.5 µM
same,Dmax,B-RAF V600E,≤ 35%
"N#Cc1c(NS(=O)(=O)N2CC[C@@H](F)C2)ccc(F)c1Oc1ccc2ncn(-c3ccc(N4CC(CN5CCC(c6ccc7c(c6)CN([C@H]6CCC(=O)NC6=O)C7=O)CC5)C4)cc3)c(=O)c2c1 [Example 189, (3R)-N-(2-cyano-3-{[3-(4-{3-[(4-{2-[(3S)-2,6-dioxopiperidin-3-yl]-1-oxo-2,3-dihydro-1H-isoindol-5-yl}piperidin-1-yl)methyl]azetidin-1-yl}phenyl)-4-oxo-3,4-dihydroquinazolin-6-yl]oxy}-4-fluorophenyl)-3-fluoropyrrolidine-1-sulfonamide]",DC50,B-RAF G466V,0.001 to 0.01 µM
same,Dmax,B-RAF G466V,35 to 70%
same,DC50,B-RAF V600E,0.05 to 0.5 µM
same,Dmax,B-RAF V600E,35 to 70%
"N#Cc1c(NS(=O)(=O)N2CC[C@@H](F)C2)ccc(F)c1Oc1ccc2ncn(-c3ccn(C4CCN(CC5CCN(c6ccc7c(c6)CN([C@H]6CCC(=O)NC6=O)C7=O)CC5)CC4)n3)c(=O)c2c1 [Example 248, (3R)—N-(2-cyano-3-{[3-(1-{1-[(1-{2-[(3S)-2,6-dioxopiperidin-3-yl]-1-oxo-2,3-dihydro-1H-isoindol-5-yl}piperidin-4-yl)methyl]piperidin-4-yl}-1H-pyrazol-3-yl)-4-oxo-3,4-dihydroquinazolin-6-yl]oxy}-4-fluorophenyl)-3-fluoropyrrolidine-1-sulfonamide]",DC50,B-RAF G466V,0.001 to 0.01 µM
same,Dmax,B-RAF G466V,≥ 70%
same,DC50,B-RAF V600E,0.05 to 0.5 µM
same,Dmax,B-RAF V600E,≥ 70%
"N#Cc1c(NS(=O)(=O)N2CC[C@@H](F)C2)ccc(F)c1Oc1ccc2ncn(-c3ccc(N4CCC(CN5CC6(CCN(c7ccc8c(c7)CN([C@H]7CCC(=O)NC7=O)C8=O)CC6)C5)CC4)cc3)c(=O)c2c1 [Example 238, (3R)-N-(2-cyano-3-{[3-(4-{4-[(7-{2-[(3S)-2,6-dioxopiperidin-3-yl]-1-oxo-2,3-dihydro-1H-isoindol-5-yl}-2,7-diazaspiro[3.5]nonan-2-yl)methyl]piperidin-1-yl}phenyl)-4-oxo-3,4-dihydroquinazolin-6-yl]oxy}-4-fluorophenyl)-3-fluoropyrrolidine-1-sulfonamide]",DC50,B-RAF G466V,0.001 to 0.01 µM
same,Dmax,B-RAF G466V,≥ 70%
same,DC50,B-RAF V600E,0.05 to 0.5 µM
same,Dmax,B-RAF V600E,≥ 70%
"N#Cc1c(NS(=O)(=O)N2CC[C@@H](F)C2)ccc(F)c1Oc1ccc2ncn(-c3ccc(C4CCN([C@H]5C[C@H](OC6CCN(c7ccc8c(c7)CN(C7CCC(=O)NC7=O)C8=O)CC6)C5)CC4)cc3)c(=O)c2c1 (stereo partly drawn) [Example 249, (3R)—N-(2-cyano-4-fluoro-3-{[4-oxo-3-(4-{1-[(1r,3r)-3-({1-[2-(2,6-dioxopiperidin-3-yl)-1-oxo-2,3-dihydro-1H-isoindol-5-yl]piperidin-4-yl}oxy)cyclobutyl]piperidin-4-yl}phenyl)-3,4-dihydroquinazolin-6-yl]oxy}phenyl)-3-fluoropyrrolidine-1-sulfonamide]",DC50,B-RAF G466V,0.001 to 0.01 µM
same,Dmax,B-RAF G466V,35 to 70%
same,DC50,B-RAF V600E,> 0.5 µM
"N#Cc1c(NS(=O)(=O)N2CC[C@@H](F)C2)ccc(F)c1Oc1ccc2ncn(-c3ccc(N4CCC(CN5CC(c6ccc([C@@H]7CCC(=O)NC7=O)cc6F)C5)CC4)cc3)c(=O)c2c1 [Example 184, (3R)-N-(2-cyano-3-{[3-(4-{4-[(3-{4-[(3S)-2,6-dioxopiperidin-3-yl]-2-fluorophenyl}azetidin-1-yl)methyl]piperidin-1-yl}phenyl)-4-oxo-3,4-dihydroquinazolin-6-yl]oxy}-4-fluorophenyl)-3-fluoropyrrolidine-1-sulfonamide]",DC50,B-RAF G466V,> 0.03 µM
same,DC50,B-RAF V600E,0.05 to 0.5 µM
same,Dmax,B-RAF V600E,≤ 35%
"N#Cc1c(NS(=O)(=O)N2CC[C@@H](F)C2)ccc(F)c1Oc1ccc2ncn(-c3ccc(N4CCC(CN5CCN(CC6CCN(c7ccc8c(c7)C(=O)N(C7CCC(=O)NC7=O)C8=O)CC6)CC5)CC4)nc3)c(=O)c2c1 (stereo partly drawn) [Example 147, (3R)-N-[2-cyano-3-({3-[6-(4-{[4-({1-[2-(2,6-dioxopiperidin-3-yl)-1,3-dioxo-2,3-dihydro-1H-isoindol-5-yl]piperidin-4-yl}methyl)piperazin-1-yl]methyl}piperidin-1-yl)pyridin-3-yl]-4-oxo-3,4-dihydroquinazolin-6-yl}oxy)-4-fluorophenyl]-3-fluoropyrrolidine-1-sulfonamide]",DC50,B-RAF G466V,0.001 to 0.01 µM
same,Dmax,B-RAF G466V,35 to 70%
same,DC50,B-RAF V600E,0.005 to 0.05 µM
same,Dmax,B-RAF V600E,35 to 70%
